# “Also recorded” adds a separate entry of the source.
# Legend:
# [1] = tested on: zebrafish; assay: Zebrafish heart size / heart volume; assay type: in vivo; details: 7 dpf zebrafish incubated with different doses of SERF2
# Method: FIG. 13: a: Changes in heart size in 7 dpf old zebrafish incubated with different doses of SERF2. b: Changes in heart volume in 7 dpf old zebrafish incubated in different concentrations of SERF2 and erythropoietin (EPO). Significant differences to control animals are indicated by asterisks.
# (§1) SERF2 was administered by a) injection of the native protein into the yolk sac of 3 day post fertilization (dpf) animals and freshly fertilized eggs (2-8 cell stage) in various protein concentrations or chronic incubation with the native protein to supply it via diffusion. For in deep analysis of angiogenic effects flk-1 transgenic animals with gfp (green fluorescent protein) labelled endothelium were used. For all other experiments wildtype (wdt) animals were used.
# Heart size was determined by measurement of end diastolic dimensions and calculation of end diastolic volume as described by Schwerte et al. (Schwerte et al. The Journal of Experimental Biology. 2003; 206 (Pt 8):1299-1307).
# [2] = tested on: 711-3 cells; assay: H2O2-induced apoptosis, caspase-3 ELISA, 711-3; assay type: cell-based, human; details: serum-free medium with or without H2O2, SERF2 5 μg/ml, 9.5 hours
# Method: 711-3 cells were incubated under different culture conditions: serum-free medium (dark blue), serum-free medium+SERF2 (5 μg/ml; lime) serum-free medium+SERF2+H2O2 (green) and serum-free medium+H2O2 (red). After 9.5 hours culture supernatants were analyzed by an ELISA-technique for caspase-3 expression levels. Results are expressed as pNA in pmol/μl.
# (§2) Caspase-3 is a member of the cysteine aspartic acid-specific protease family and is a marker of an early event in apoptosis. Caspase-3 expression was measured using a commercially available kit. Briefly, culture supernatants of cells undergoing apoptosis after different treatments were harvested and incubated with a substrate labeled with p-nitroaniline (pNA), which produces a yellow color when it is cleaved by caspase-3. The amount of produced yellow color is proportional to the caspase-3 activity, which can be determined by an ELISA reader at 405 nm (Promega). The assay was performed essentially as described by the manufacturer (instruction manual of CaspACE™ Assay System, Promega).
# (§3) The question was asked whether SERF2 has an effect on growth factor deprivation- or stress-induced apoptosis. The experimental protocol included addition of Hydrogen peroxide (H2O2), which is known to cause cellular stress and consequently apoptotic death in doses below 200 μM (Cox A., Carcinogenesis. 2007, Vol. 28, 10). […]
# [3] = tested on: zebrafish; assay: Zebrafish blood cell concentration; assay type: in vivo
# Method: FIG. 14: Changes in blood cell concentrations in zebrafish incubated in different doses of SERF2. Shown are mean values (blood cells/nl) and SEM. Asterisks indicate significant differences to control animals.
# FIG. 17: Detection of blood cells (green arrows) in 7 dpf zebrafish (top image=control, lower image=SERF2-treated). To determine blood cell concentration the number of detected cells were divided by vessel volume.
# as §1
# A cast of the vascular bed was obtained by accumulation of the shifting vectors of moving erythrocytes from a number of subsequent difference pictures, as described previously (by Schwerte et al., supra). In parallel to this flk-1 transgenic animals, which show green fluorescing endothelium, were imaged.
# [4] = tested on: human epithelial cell line (A431); assay: H2O2-induced apoptosis, trypan-blue staining, A431; assay type: cell-based; details: 200 mM H2O2, SERF2 5 μg/ml, 6 hours, serum-free
# Method: Experiments were performed in 6-well plates containing 5 ml cell culture medium (serum-free) per well and were seeded at a cell density of 1*10^6 cells/well and cultured overnight. On the next day 200 mM H2O2 or 200 mM H2O2 and SERF2 (5 μg/ml) was added to cultures. After 6 hours of incubation, the adherent cells were harvested, washed 3 times in PBS and dead cells were detected by trypan-blue staining using light microscopy. Shown is the percentage of dead cells.
# Trypan Blue staining is one of the most commonly used methods to determine the cell viability using light microscopy. Trypan blue can only stain cells if their membrane is damaged.
# The question was asked whether SERF2 has an effect on growth factor deprivation- or stress-induced apoptosis. The experimental protocol included addition of Hydrogen peroxide (H2O2), which is known to cause cellular stress and consequently apoptotic death in doses below 200 μM (Cox A., Carcinogenesis. 2007, Vol. 28, 10). Furthermore apoptosis was induced by deprivation of granulocyte macrophage colony-stimulating factor (GM-CSF) in cultures of TF-1 cells. These cells are dependent on the presence of a growth factor which is absolutely necessary for growth and differentiation of TF-1 cells.
# [5] = tested on: TF-1 cells; assay: Growth factor deprivation apoptosis, caspase-3 ELISA, TF-1; assay type: cell-based, human; details: serum-free medium with or without GM-CSF, SERF2 5 μg/ml, 9.5 hours
# Method: TF-1 cells were incubated under different culture conditions: FCS+GM-CSF (dark blue), serum-free medium+GM-CSF (5 μg/ml; pale blue), serum-free medium+GM-CSF+SERF2 (5 μg/ml; lime), serum-free medium+SERF2 (green) and serum-free medium only (red). After 9.5 hours culture supernatants were analyzed by an ELISA-technique for caspase-3 expression levels. Results are expressed as pNA in pmol/μl
# as §2, §3
substance,measurement,setting,value
"SERF2: Small EDRK-rich factor 2, mature protein of 59 amino acids (SEQ ID NO: 1) (MTRGNQRELARQKNMKKQSDSVKGKRRDDGLSAAARKQRDSEIMQQKQKKANEKKEEPK; homo sapiens)",change in heart volume,[1],significant increase of the animals heart volume
same,apoptosis (caspase-3 levels) in 711-3 cells,[2],markedly reduced apoptosis; also recorded: alleviates apoptosis
same,blood cell concentrations by treatment group,"[3]; 7 dpf, incubation and injection routes",all but one treatment group show significantly increased blood cell concentrations
same,increase in blood cell concentration compared to controls,"[3]; zebrafish, different doses of SERF2",50 to 100%
same,"protection from H2O2-induced apoptosis (percentage of dead cells), A431",[4],markedly reduced apoptosis; also recorded: protects a human epithelial cell line (A431) from H2O2-induced apoptosis
same,apoptosis (caspase-3 levels) in TF-1 cells,[5],markedly reduced apoptosis; also recorded: compensates for FCS and alleviates apoptosis
